According to ChEMBL document CHEMBL3217506, “Amidines bearing benzofuroxan or benzimidazole 1,3-dioxide core scaffolds as Trypanosoma cruzi-inhibitors: structural basis for their interactions with cruzipain” (Medchemcomm, 2012):
pIC50: −log10 of the molar value.

How the values were obtained:
[1] = molecular target: Cruzipain (Trypanosoma cruzi) (UniProt P25779); assay: Inhibition of Trypanosoma cruzi cruzipain using Z-Phe-Arg-AMC as substrate at pH 7.4 after 10 mins by spectrofluorimetry relative to untreated control
Trypanosoma cruzi = assay: Antitrypanosomal activity against epimastigote stage of Trypanosoma cruzi Tulahuen 2 after 5 days relative to untreated control; format: functional; conditions: Tulahuen 2, 120 h, read-out: ID50 (the source's name)
[2] = Selectivity index, ratio of ID50 for human RBC to ID50 for epimastigote stage of Trypanosoma cruzi Tulahuen 2
[3] = Cytotoxicity against human RBC assessed as hemolytic activity after 24 hrs by spectrophotometry; format: cell-based, Erythrocyte; conditions: human red blood cells (RBC), read-out: ID50
[4] = molecular target: Cruzipain (Trypanosoma cruzi) (UniProt P25779); assay: Inhibition of Trypanosoma cruzi cruzipain using Z-Phe-Arg-AMC as substrate at 100 uM at pH 5.3 after 10 mins by spectrofluorimetry relative to untreated control
[5] = molecular target: Cruzipain (Trypanosoma cruzi) (UniProt P25779); assay: Inhibition of Trypanosoma cruzi cruzipain using Z-Phe-Arg-AMC as substrate at 100 uM at pH 7.4 after 10 mins by spectrofluorimetry relative to untreated control
[6] = molecular target: Cruzipain (Trypanosoma cruzi) (UniProt P25779); assay: Inhibition of Trypanosoma cruzi cruzipain using Z-Phe-Arg-AMC as substrate at 100 uM at pH 5.3 after 10 mins by spectrofluorimetry in presence of Triton X-100 relative to untreated control

Cruzipain (Trypanosoma cruzi), sequence (P25779 123-467 limits assumed): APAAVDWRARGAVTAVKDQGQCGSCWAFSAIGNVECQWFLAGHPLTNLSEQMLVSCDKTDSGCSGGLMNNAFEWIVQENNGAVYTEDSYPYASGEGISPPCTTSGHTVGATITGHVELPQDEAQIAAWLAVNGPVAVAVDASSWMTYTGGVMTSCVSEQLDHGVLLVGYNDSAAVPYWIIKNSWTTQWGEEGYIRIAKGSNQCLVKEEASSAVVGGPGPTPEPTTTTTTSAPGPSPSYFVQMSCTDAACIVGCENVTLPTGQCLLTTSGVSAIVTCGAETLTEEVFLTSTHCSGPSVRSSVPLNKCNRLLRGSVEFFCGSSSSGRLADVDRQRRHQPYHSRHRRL

O=S(=O)(/C=C/c1ccc2no[n+]([O-])c2c1)c1ccccc1
ID50 [1]: > 50 µM
pIC50 (Trypanosoma cruzi): 5.80

CC1CS(=O)(=O)CCN1/N=C/c1ccc([N+](=O)[O-])o1 (stereo unspecified) [NIFURTIMOX]
Selectivity Index [2]: > 13
HC50 at 24 h [3]: > 100 µM
pIC50 (Trypanosoma cruzi): 5.11

c1ccc(CC/N=C(/Nc2ccccc2)N2CCNCC2)cc1
inhibition [4]: 3.2%

c1ccc(N/C(=N/Cc2ccco2)N2CCNCC2)cc1
inhibition [4]: 10%

[O-][n+]1onc2ccc(CN3CCN(/C(=N/c4ccccc4)NCc4ccco4)CC3)cc21
inhibition [5]: 0.3%
inhibition [4]: 44%
ID50 [1]: 100 µM
Selectivity Index [2]: > 13
inhibition [6]: 45%
HC50 at 24 h [3]: > 200 µM
pIC50 (Trypanosoma cruzi): 4.82

O=C(Cn1ccnc1[N+](=O)[O-])NCc1ccccc1 [BENZNIDAZOLE]
pIC50 (Trypanosoma cruzi): 5.13

c1ccc(C/N=C(/Nc2ccccc2)N2CCNCC2)cc1
inhibition [4]: 5.4%

[O-][n+]1onc2ccc(CN3CCN(/C(=N/c4ccccc4)NCCc4ccccc4)CC3)cc21
inhibition [5]: 25%
inhibition [4]: 34%
ID50 [1]: > 100 µM
Selectivity Index [2]: 31
HC50 at 24 h [3]: 37 µM
pIC50 (Trypanosoma cruzi): 5.92

N=C(N/N=C/c1ccc(O)cc1)SCc1ccc2no[n+]([O-])c2c1
ID50 [1]: 64.5 µM
pIC50 (Trypanosoma cruzi): 5.17

C[C@@H]1[C@H](O)[C@@H](C)/C=C/C=C/C=C/C=C/C=C/C=C/C=C/[C@H](O[C@@H]2O[C@H](C)[C@@H](O)[C@H](N)[C@@H]2O)C[C@@H]2O[C@](O)(C[C@@H](O)C[C@@H](O)[C@H](O)CC[C@@H](O)C[C@@H](O)CC(=O)O[C@H]1C)C[C@H](O)[C@H]2C(=O)O
Selectivity Index [2]: 10

CC1(C)[N+]([O-])=c2ccc(CN3CCN(/C(=N/c4ccccc4)NCc4ccccc4)CC3)cc2=[N+]1[O-]
inhibition [5]: 34%
HC50 at 24 h [3]: > 36 µM

[O-][n+]1onc2ccc(CN3CCN(/C(=N/c4ccccc4)NCc4ccccc4)CC3)cc21
inhibition [5]: 29%
inhibition [4]: 11%
HC50 at 24 h [3]: 83 µM

c1ccc(/N=C(/Nc2ccccc2)N2CCNCC2)cc1
inhibition [4]: 6.3%

CC/C(=N\N=C(\N)S)c1cccc(Br)c1
ID50 [1]: 0.1 µM

CC1(C)[N+]([O-])=c2ccc(CN3CCN(/C(=N/c4ccccc4)NCCc4ccccc4)CC3)cc2=[N+]1[O-]
inhibition [5]: 30%
Selectivity Index [2]: > 50
HC50 at 24 h [3]: > 50 µM
pIC50 (Trypanosoma cruzi): 6.00

CC1(C)[N+]([O-])=c2ccc(CN3CCN(/C(=N/c4ccccc4)NCc4ccco4)CC3)cc2=[N+]1[O-]
inhibition [5]: 15%
HC50 at 24 h [3]: > 200 µM

N=C(N)N/N=C/c1ccc(OCc2ccc3no[n+]([O-])c3c2)cc1
ID50 [1]: 32 µM
pIC50 (Trypanosoma cruzi): < 4.60

[O-][n+]1onc2ccc(CN3CCN(/C(=N/c4ccccc4)Nc4ccccc4)CC3)cc21
inhibition [5]: 12%
inhibition [4]: 47%
ID50 [1]: 100 µM
Selectivity Index [2]: 18
HC50 at 24 h [3]: 105 µM
pIC50 (Trypanosoma cruzi): 5.24
